Reference: patent US5349127A, “Expression of herbicide metabolizing cytochromes P450” (priority 1992, dated 1994)

Key:
[1] = system: S. lividans transformed with pCAO400; test: Metabolism of 10001 in growing culture, HPLC of supernatant (Example 4); assay type: in vitro ADME, Streptomyces lividans; conditions: 0.12 mg/ml 10001 in culture
Procedure: (§1) Herbicides and their metabolites are measured by HPLC as described by Romesser et al., BBRC 140: 650-659 (1986), herein incorporated by reference, except that 0.1% H3 PO4 is used in both solvents. Chromatographic identity and quantitation of the herbicides and their resulting metabolites is determined by comparing them chromatographically with authentic standard compounds. Identity of the resulting metabolites is also confirmed by UV spectroscopy.
(§2) Separate cultures (50 ml) inoculated with S. lividans C37, S. lividans transformed with pCAO400 or S. lividans transformed with pCAO401 in sporulation broth containing 0.12 mg/ml of 10001 were grown with shaking at 30° C. Aliquots (1.5 ml) of each culture were removed at 24, 32, 48 and 56 hours after inoculation and the supernatant of each aliquot was analyzed by HPLC for its concentration of 10001 and its metabolites 10002 or 10003.

[2] = system: S. lividans transformed with pCAO401; test: as above; assay type: in vitro ADME, Streptomyces lividans; conditions: 0.12 mg/ml 10001 in culture
Procedure: as §1, §2

[3] = system: S. lividans PH3822; test: Metabolism of 10001 by strains transformed with pPAT108 (Example 14); assay type: in vitro ADME, Streptomyces lividans; conditions: substrate 10001 120 ug/ml
Procedure: (§3) S. griseolus PH2003, S. griseus PH4001, S. ambofaciens PH4002, and S. lividans JI1326 were transformed with the plasmid pPAT108. The transformed S. griseolus strain, PH3826, was cultured for 24 hours in 150 mls of sporulation broth with 5 ug/ml thiostrepton. The transformed S. griseus strain, PH3832, and the transformed S. ambofaciens strain, PH3834, were cultured for 24 hours in 150 mls of trypticase soy broth with 5 ug/ml thiostrepton. The transformed S. lividans strain, PH3822, was similarly cultured in 150 mls of YEME broth with 5 ug/ml thiostrepton. Three hours before harvesting the cells, 50 mls of fresh medium of the same type with 5 ug/ml thiostrepton was added to each culture. The cells from each of the cultures were harvested by centrifugation, washed twice with 50 mMMOPS, pH7.2 and resuspended in five cell volumes of MOPS containing 0.2% glucose and 120 ug/ml of the sulfonylurea 10001. The cell suspensions were incubated at 30° C. with shaking and aliquots were removed at 0.5, 1, 2 and 4 hours. The supernatant of each aliquot was analyzed by HPLC and the concentration of the sulfonylurea compound 10001 and its metabolites 10002 and 10003 were determined.

[4] = system: S. ambofaciens PH3834; test: as above; assay type: in vitro ADME, Streptomyces ambofaciens; conditions: substrate 10001 120 ug/ml
Procedure: as §3

[5] = system: S. lividans PH3816; test: Metabolism of 10001 by strains transformed with pCS325 (Example 15); assay type: in vitro ADME, Streptomyces lividans; conditions: substrate 10001
Procedure: as §3
(§4) S. griseolus PH2003, S. griseus PH4001, S. ambofaciens PH4002, and S. lividans JI1326 were transformed with the plasmid pCS325. Cells of the transformed strains of S. griseolus PH3809, S. griseus PH3817, S. ambofaciens PH3818, and S. lividans PH3816, were grown and treated as described in Example 14, and the concentrations of the sulfonylurea compound 10001 and its metabolites 10002 and 10003 were determined.

[6] = system: S. ambofaciens PH3818; test: as above; assay type: in vitro ADME, Streptomyces ambofaciens; conditions: substrate 10001
Procedure: as §3, §4

[7] = system: S. griseolus ATCC 11796 induced with 10001; test: Sulfonylurea metabolism by washed cell suspension (Examples 5-9); assay type: in vitro ADME, Streptomyces griseolus
[8] = system: S. lividans pCAO200SU1#12; test: Sulfonylurea metabolism by washed cell suspension (Examples 6-9); assay type: in vitro ADME, Streptomyces lividans
[9] = system: S. lividans pCAO200SU2-FeS-A#11; test: Sulfonylurea metabolism by washed cell suspension (Examples 11-12); assay type: in vitro ADME, Streptomyces lividans; conditions: substrate 10001
Procedure: S. lividans transformed with pCAO200SU2-FeS-A#11 and S. lividans transformed with pCAO200 were cultured for 36 hours in 400 ml of YEME broth at 30° C. S. griseolus PH2001 (mutant without SU1) was cultured in 400 ml of sporulation broth at 30° C. Nine hours before harvesting the cells, the S. griseolus PH2001 culture was divided into two 200 ml cultures. Both received 100 ml of fresh sporulation broth and one received 36 mg of 10001 to induce cytochrome P450SU2. The cells were prepared as described above in Example 6 and the concentrations of the sulfonylurea compound 10001 and its metabolites 10002 and 10003 were determined.

Row | Structure (SMILES) | concentration in supernatant ([1]; 0 h) | concentration in supernatant ([1]; 24 h) | concentration in supernatant ([1]; 32 h) | concentration in supernatant ([1]; 48 h) | concentration in supernatant ([1]; 56 h) | concentration in supernatant ([2]; 0 h) | concentration in supernatant ([2]; 24 h) | concentration in supernatant ([2]; 32 h) | concentration in supernatant ([2]; 48 h) | concentration in supernatant ([2]; 56 h) | concentration in supernatant ([3]; 0.5 h) | concentration in supernatant ([3]; 1.0 h) | concentration in supernatant ([3]; 2.0 h) | concentration in supernatant ([3]; 4.0 h) | concentration in supernatant ([4]; 1.0 h) | concentration in supernatant ([4]; 2.0 h) | concentration in supernatant ([4]; 4.0 h) | concentration in supernatant ([5]; 0.5 h) | concentration in supernatant ([5]; 1.0 h) | concentration in supernatant ([5]; 2.0 h) | also measured
1 | CCOC(=O)c1ccccc1S(=O)(=O)NC(=O)Nc1nc(Cl)cc(OC)n1 [compound 10001, N-[(4-chloro-6-methoxy-pyrimidin-2-yl)aminocarbonyl]-2-ethoxycarbonylbenzenesulfonamide] | 300 µM | 269 µM | 240 µM | 184 µM | 137 µM | 284 µM | 230 µM | 203 µM | 123 µM | 105 µM | 294 µM | 284 µM | 262 µM | 232 µM | 278 µM | 250 µM | 191 µM | 331 µM | 339 µM | 299 µM | concentration in supernatant ([5]; 4.0 h): 248 µM; concentration in supernatant ([6]; 0.5 h): 286 µM; concentration in supernatant ([6]; 1.0 h): 265 µM; concentration in supernatant ([6]; 2.0 h): 210 µM; concentration in supernatant ([6]; 4.0 h): 129 µM; concentration in supernatant ([7]; substrate 10001, 2 h): 220 µM; concentration in supernatant ([7]; substrate 10001, 4 h): 36 µM; concentration in supernatant ([7]; substrate 10001, 6 h): 3 µM; concentration in supernatant ([8]; substrate 10001, 4 h): 276 µM; concentration in supernatant ([8]; substrate 10001, 6 h): 276 µM; concentration in supernatant ([9]; 2 h): 279 µM; concentration in supernatant ([9]; 4 h): 273 µM; concentration in supernatant ([9]; 6 h): 251 µM
2 | CCOC(=O)c1ccccc1S(=O)(=O)NC(=O)Nc1nc(O)cc(Cl)n1 [compound 10002, N-[(4-chloro-6-hydroxy-pyrimidin-2-yl)aminocarbonyl]-2-ethoxycarbonylbenzenesulfonamide] | 0 µM | 17 µM | 25 µM | 39 µM | 47 µM | 0 µM | 32 µM | 44 µM | 63 µM | 71 µM | 2 µM | 5 µM | 10 µM | 25 µM | 11 µM | 27 µM | 64 µM | 19 µM | 36 µM | 68 µM | concentration in supernatant ([4]; 0.5 h): 6 µM; concentration in supernatant ([5]; 4.0 h): 103 µM; concentration in supernatant ([8]; substrate 10001, 2 h): 2 µM; concentration in supernatant ([8]; substrate 10001, 4 h): 4 µM; concentration in supernatant ([8]; substrate 10001, 6 h): 6 µM; concentration in supernatant ([9]; 2 h): 7 µM; concentration in supernatant ([9]; 4 h): 12 µM; concentration in supernatant ([9]; 6 h): 15 µM
3 | COc1cc(Cl)nc(NC(=O)NS(=O)(=O)c2ccccc2C(=O)O)n1 [compound 10003, N-[(4-chloro-6-methoxy-pyrimidin-2-yol)aminocarbonyl]-2-carboxybenzenesulfonamide] | 0 µM | 16 µM | 22 µM | 28 µM | 29 µM | 0 µM | 26 µM | 36 µM | 46 µM | 48 µM | 1 µM | 3 µM | 5 µM | 15 µM | 6 µM | 14 µM | 33 µM | 1 µM | 3 µM | 7 µM | concentration in supernatant ([4]; 0.5 h): 1 µM; concentration in supernatant ([5]; 4.0 h): 11 µM; concentration in supernatant ([6]; 0.5 h): 1 µM; concentration in supernatant ([6]; 1.0 h): 3 µM; concentration in supernatant ([6]; 2.0 h): 7 µM; concentration in supernatant ([6]; 4.0 h): 13 µM; concentration in supernatant ([7]; substrate 10001, 2 h): 76 µM; concentration in supernatant ([7]; substrate 10001, 4 h): 128 µM; concentration in supernatant ([7]; substrate 10001, 6 h): 142 µM; concentration in supernatant ([8]; substrate 10001, 2 h): 2 µM; concentration in supernatant ([8]; substrate 10001, 4 h): 4 µM; concentration in supernatant ([8]; substrate 10001, 6 h): 5 µM; concentration in supernatant ([9]; 2 h): 1 µM; concentration in supernatant ([9]; 4 h): 2 µM; concentration in supernatant ([9]; 6 h): 3 µM
4 | COC(=O)c1ccccc1S(=O)(=O)NC(=O)Nc1nc(C)cc(C)n1 [compound 10010, N-[(4,6-dimethylpyrimidin-2-yl)aminocarbonyl]-2-methoxycarbonylbenzenesulfonamide] | – | – | – | – | – | – | – | – | – | – | – | – | – | – | – | – | – | – | – | – | concentration in supernatant ([7]; substrate 10010, 2 h): 40 µM; concentration in supernatant ([7]; substrate 10010, 4 h): 8 µM; concentration in supernatant ([7]; substrate 10010, 6 h): 4 µM; concentration in supernatant ([8]; substrate 10010, 2 h): 90 µM; concentration in supernatant ([8]; substrate 10010, 4 h): 85 µM; concentration in supernatant ([8]; substrate 10010, 6 h): 80 µM
